biological target: T1, PLA2 (phospholipase A2) from rat platelets (Rattus norvegicus, UniProt P14423); assay: Phospholipase A2 inhibitory activity (release of free fatty acid from 14C-labelled phosphatidylethanolamine); assay type: biochemical; settings: rat platelet PLA2; Tris-buffer 0.1M, pH 7.4; CaCl2 3 mM; 37° C., 20 minutes
T1 construct: from tissue; host or cells: rat platelets
T1 sequence (P14423 22-146): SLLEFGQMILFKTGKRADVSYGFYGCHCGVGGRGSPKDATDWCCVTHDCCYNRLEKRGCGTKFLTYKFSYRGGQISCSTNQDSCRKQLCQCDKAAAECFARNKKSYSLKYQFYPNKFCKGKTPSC
Experimental: The compounds of the present invention were tested for their Phospholipase A2 inhibitory activity by the following procedure.
1-Palmitoyl-2-[1-^14 C]-linoleoyl L-3-Phosphatidylethanolamine (Amersham, Inc., 59 mCi/mmol) were diluted with L-α-phosphatidylethanolamine (Sigma, Co., from […]) [2,000 dpm/nmol], and the dilution was sonicated. The resultant dilution was used as a substrate. The PLA2 (phospholipase A2) which was used in the test was from rat platelets. The PLA2 and the substrate preparation were added to a solution of CaCl2 (3 mM)in Tris-buffer (0.1M, pH 7.4), and the mixture was allowed to react at 37° C. for 20 minutes. Then, the reaction was terminated by adding 1.25 ml of Dole's reagent to the reaction mixture and stirring immediately the resultant mixture. To the mixture was added 0.5 ml of distilled water and 0.8 ml of n-heptane, and the mixture was stirred, centrifuged, and the resulting supernatant was taken into another tube. To this supernatant were added additional 0.8 ml of n-heptane and silica gel, and the mixture was stirred, centrifuged, and then the supernatant was taken into vials. Toluene cocktails were added to the vials. The amount of free fatty acid released from PLA2 (DPM value) was determined using liquid scintillation counter.
Inhibitory activity (%) was estimated by the formula: [(DPM value at the addition of the inhibitor-DPM value without PLA2)/(DPM value with only PLA2 -DPM value without PLA2)]×100.

Row | Compound | IC50
1 | COc1c(C)c(OC(=O)c2c(C)c(C)c(OC(=O)c3c(C)c(CNCCCCC(NC(=O)OCc4ccccc4)C(N)=O)c(O)c(C)c3O)c(C)c2OC)c(C)c(C)c1C(=O)O (stereo not drawn) [Compound 1e] | 1.1 µM
2 | COc1c(C)c(OC(=O)c2c(C)c(C)c(OC(=O)c3c(C)c(CN[C@H](C)c4ccccc4)c(O)c(C)c3O)c(C)c2OC)c(C)c(C)c1C(=O)O [Compound 6b, 4-[4'-[5"-(Sec-phenethylaminomethyl)-2",4"-dihydroxy-3",6"-dimethylphenylcarboxy]-2'-methoxy-3',5',6'-trimethyl]phenylcarboxy-2-methoxy-3,5,6-trimethyl benzoic acid] | 0.3 µM
3 | COc1c(C)c(OC(=O)c2c(C)c(C)c(OC(=O)c3c(C)c(CO)c(O)c(C)c3O)c(C)c2OC)c(C)c(C)c1C(=O)O [Compound 1f] | 0.38 µM
4 | COCc1c(C)c(C(=O)Oc2c(C)c(C)c(C(=O)Oc3c(C)c(C)c(C(=O)O)c(OC)c3C)c(OC)c2C)c(O)c(C)c1O [Compound 1g] | 0.34 µM
5 | COCc1c(C)c(C(=O)Oc2c(C)c(C)c(C(=O)O)c(OC)c2C)c(OC)c(C)c1O [Compound 1i] | 3.9 µM

The next compounds have a lower IC50 than those just listed; values first:

Row | IC50 | Compound
6 | 0.16 µM | COc1ccc(CCOCc2c(C)c(C(=O)Oc3c(C)c(C)c(C(=O)Oc4c(C)c(C)c(C(=O)O)c(OC)c4C)c(OC)c3C)c(O)c(C)c2O)cc1 [Compound 1c]
7 | 0.17 µM | CCOC(=O)CNCc1c(C)c(C(=O)Oc2c(C)c(C)c(C(=O)Oc3c(C)c(C)c(C(=O)O)c(OC)c3C)c(OC)c2C)c(O)c(C)c1O [Compound 1b]
8 | 0.026 µM | COc1c(C)c(OC(=O)c2c(C)c(C)c(OC(=O)c3c(C)c(CNCC(=O)OCc4ccccc4)c(O)c(C)c3O)c(C)c2OC)c(C)c(C)c1C(=O)O [Compound 1a, 4-[4'-(4"-Carboxy-3"-methoxy-2",5",6"-trimethylphenoxycarbony)-3'-methoxy-2',5',6'-trimethylphenoxycarbonyl]-2,5-dimethyl-6-benzyloxyglycylmethylresorcinol]
9 | 0.12 µM | CCCCOCc1c(C)c(C(=O)Oc2c(C)c(C)c(C(=O)Oc3c(C)c(C)c(C(=O)O)c(OC)c3C)c(OC)c2C)c(O)c(C)c1O [Compound 1d]

From patent US5473096A, “Substituted benzoate derivatives” (Shionogi & Co., Ltd., priority 1992, dated 1995)
